Experimental data published in PubChem BioAssay (NCI).
Values joined by “and” are separate entries in the source; they are usually repeats but may differ in a detail not shown here. Equal values may be shown once.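 A five-concentration, 48-hour dose response in 96-well plates underlies each endpoint, interpolated linearly between surrounding concentrations. GI50 = concentration required for 50% inhibition of growth. Definition used: TGI = concentration required for complete inhibition of growth.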

What was measured:
Experiment in all cases: NCI anticancer screen, dose series, 48 h
SF-268 CNS = system: SF-268 CNS
SNB-78 CNS = system: SNB-78 CNS
SF-295 CNS = system: SF-295 CNS
RPMI-8226 leukemia = system: RPMI-8226 leukemia
RXF 393 renal = system: RXF 393 renal
HL-60(TB) leukemia = system: HL-60(TB) leukemia
LXFL 529 NSCLC = system: LXFL 529 NSCLC
EKVX NSCLC = system: EKVX NSCLC
NCI-H522 lung = system: NCI-H522 lung
MDA-MB-435 = system: MDA-MB-435

Structure (SMILES) | TGI (SF-268 CNS) | TGI (SNB-78 CNS) [µM] | TGI (SF-295 CNS) | TGI (RPMI-8226 leukemia) | TGI (RXF 393 renal) | TGI (HL-60(TB) leukemia) | TGI (LXFL 529 NSCLC) [µM] | TGI (EKVX NSCLC) | TGI (NCI-H522 lung) | GI50 (SF-268 CNS) | GI50 (SNB-78 CNS) [µM] | GI50 (SF-295 CNS) | GI50 (RPMI-8226 leukemia) | GI50 (HL-60(TB) leukemia) | GI50 (NCI-H522 lung) | GI50 (LXFL 529 NSCLC) [µM] | GI50 (EKVX NSCLC) | GI50 (MDA-MB-435) | TGI (MDA-MB-435) | GI50 (RXF 393 renal)
CCc1cccc(C(C)C)c1C1C(=O)C(=O)N(c2nc3ccccc3s2)C(=O)C1=O | > 100 µM | > 100 | > 100 µM | > 100 µM | > 100 µM | > 100 µM | > 100 | > 100 µM |  |  |  |  |  |  |  |  |  |  |  | 
Cc1nn(C(=O)CC(=O)Nc2ccccc2Cl)c(C)c1N=Nc1ccccc1Cl | > 100 µM | > 100 | > 100 µM |  | > 100 µM | > 100 µM | > 100 | > 100 µM |  |  |  |  |  |  |  |  |  |  |  | 
CCCCCC1C2C(=O)NC(=O)C1C(=O)NC2=O (centres undefined) | > 100 µM |  | > 100 µM | > 100 µM | > 100 µM | > 100 µM | > 100 | > 100 µM | > 100 µM |  |  |  |  |  |  |  |  |  |  | 
NCCN.O=N[O-].O=N[O-].O=N[O-].O=N[O-].[Co+3].[K+] | > 100 µM | > 100 | > 100 µM | > 100 µM |  | > 100 µM | > 100 | > 100 µM | > 100 µM | > 100 µM | > 100 | > 100 µM | > 100 µM | > 100 µM | > 100 µM | > 100 | > 100 µM |  |  | 
CC(=O)NC1C(=O)CC(c2ccccc2)N(C)C1c1ccccc1 (centres undefined) | > 100 µM | > 100 | > 100 µM |  | > 100 µM | > 100 µM | > 100 | > 100 µM | > 100 µM |  |  |  |  |  |  |  |  |  |  | 
O=c1c2ccccc2nc(-c2ccccc2Cl)n1NC1OC(CO)C(O)C(O)C1O (centres undefined) | > 100 µM | > 100 | > 100 µM | > 100 µM |  | > 100 µM | > 100 | > 100 µM | > 100 µM |  |  |  |  |  |  |  |  |  |  | 
Cc1cn2cc(-c3ccncc3)nc2s1 | > 100 µM | > 100 | > 100 µM | > 90.2 µM |  | > 41.6 µM | > 100 | > 100 µM | > 100 µM |  |  |  |  |  |  |  |  |  |  | 
COCC(O)CN1C(N)=NC(O)C1O (centres undefined) | > 100 µM | > 100 | > 100 µM |  | > 100 µM | > 100 µM | > 100 | > 100 µM | > 100 µM |  |  |  |  |  |  |  |  |  |  | 
CC(CCC/C=C/CCCN(C)C(=N)N)CC(C)C1OC(=O)C(C)C(O)/C=C/C(C)C(O)C(C)C(O)C(C)C(O)CCCC(O)CC2(O)OC(CC(OC(=O)CC(=O)O)CC(O)CC(O)C(C)C(O)/C=C/C=C/C1C)CC(O)C2O (centres undefined) | 7.24 µM and 16.5 µg/mL |  | 17 µM and 22.5 µg/mL | 10.5 µM and 28 µg/mL | 3.71 µM and 4.59 µg/mL | 21.2 µg/mL |  | 12.6 µM and 16.8 µg/mL | 10.5 µM and 12.9 µg/mL | 2.76 µM and 6.7 µg/mL |  | 4.16 µM and 11.7 µg/mL | 2.71 µM and 9.09 µg/mL | 6.5 µg/mL | 2.38 µM and 2.79 µg/mL |  | 3.41 µM and 6.84 µg/mL | 1.9 µM and 2.45 µg/mL | 4.39 µM and 9.24 µg/mL | 1.98 µM and 1.89 µg/mL
COc1ccc(/C=C2\CC(C)CC3C2=NN(C(C)=O)C3c2ccc(OC)c(OC)c2)cc1OC (centres undefined) | 31.8 µM |  | 50.2 µM | 32 µM | 39 µM | 52.1 µM |  | 70.1 µM | 40.4 µM | 14.6 µM |  | 19.9 µM | 8.19 µM | 12.6 µM | 14.5 µM |  | 19.2 µM | 18.6 µM | 39.4 µM | 17.9 µM
Cc1nc2cc(NC(=O)CN3CCN(CCN4C(=O)c5cccc6cccc(c56)C4=O)CC3)ccc2s1 | 24.9 µM |  | > 100 µM | 15.2 µM | 25.4 µM | 26.3 µM |  | > 100 µM | 13.8 µM | 5.01 µM |  | 3.48 µM | 2.91 µM | 6.36 µM | 3.01 µM |  | 7.88 µM | 4.6 µM | 19.4 µM | 5.46 µM
C/C(=C1/N=C(c2ccccc2)OC1=O)c1cccs1 | > 100 µM |  | > 100 µM | > 100 µM | > 100 µM | > 100 µM |  | > 100 µM | > 100 µM |  |  |  |  |  |  |  |  |  | > 100 µM | 
Cc1cc(N2CCOCC2)nc(N(CCNc2ccnc3cc(Cl)ccc23)Cc2cccs2)n1 | 10.6 µM |  | 3.13 µM | 4.04 µM | 3.47 µM | 3.83 µM |  | 44 µM | 3.72 µM | 3.27 µM |  | 1.58 µM | 1.87 µM | 1.95 µM | 1.72 µM |  | 2.79 µM | 1.76 µM | 3.32 µM | 1.74 µM
COc1cc(/C=C/C(=O)C(C)(C)C)cc(OC)c1OC | > 100 µM |  | > 100 µM | > 100 µM | 79.1 µM | 53 µM | 93.5 | > 100 µM | > 100 µM |  |  |  |  |  |  |  |  |  |  | 
COc1ccc(/C(C)=C(\c2ccc(Cl)cc2)c2ccc(OCCN3CCCCC3)cc2)cc1F | > 16.7 µM |  | 5.52 µM | 8.49 µM | 5.75 µM | 6.82 µM |  | > 16.7 µM | 7.94 µM | 5.96 µM |  | 2.75 µM | 3.49 µM | 2.85 µM | 3.54 µM |  | 4.78 µM | 2.71 µM | 5.37 µM | 2.84 µM
O=C(Cc1nc2ccccc2s1)C(=O)Nc1ccccc1C(F)(F)F | > 100 µM | > 100 | > 100 µM |  | > 100 µM | > 100 µM | > 100 | > 100 µM | > 100 µM |  |  |  |  |  |  |  |  |  |  | 
COc1cc(C2C3=C(COC3=O)N(CCO)c3cc4c(cc32)CCC4)cc(OC)c1OC (centres undefined) |  |  |  | > 12.2 µM | 0.141 µM |  |  | > 32.5 µM | 0.212 µM | 0.0934 µM |  | 0.0479 µM | 0.135 µM | 0.0842 µM | 0.041 µM |  | 1.12 µM | 0.0279 µM | 0.187 µM | 0.0446 µM
COC(=O)[C@@H](C)C[C@H](Cc1ccccc1)NC(=O)c1cccc([C@@H](C[C@H](C(C)C)N(C)C(=O)[C@@H](NC(=O)[C@H]2CCCCN2C)C(C)C)OC(C)=O)n1 | > 16.7 µM |  | 0.0142 µM | > 16.7 µM | > 16.7 µM | 0.00181 µM |  | > 16.7 µM | 0.00263 µM | 0.0164 µM |  | < 0.00167 µM | < 0.00167 µM | < 0.00167 µM | < 0.00167 µM |  | 0.00497 µM | < 0.00167 µM | 0.0881 µM | < 0.00167 µM
